Laboratory results taken from patent publication US5177188A, “Methods and compositions for diagnosing chronic immune thrombocytopenic purpura” (The Scripps Research Institute, priority 1990, dated 1993).

What was measured:
Design in all cases: species or system human
[1] = tested on: antipeptide antibody binding to GPIIIa peptides; test: Inhibition of antipeptide antibody binding to GPIIIa peptides by platelets or purified GPIIb/IIIa; conditions: plasma ITP-1, -2, -3 (1/10 dilution) preincubated with inhibitor
Procedure: (§1) To evaluate the ability of washed platelets, affinity-purified GPIIb/IIIa or synthetic peptides to block autoantibody binding, serial dilutions of platelets, GPIIb/IIIa or synthetic peptides (maximum addition: 10^10 platelets, 200 μg GPIIb/IIIa or 10 μg of peptide per 100 μl plasma, respectively) were incubated overnight at 4° C. with the patient's plasma. The preincubated plasma (100 μl 1/10 dilution) was added to replicate wells containing either GPIIb/IIIa from platelet lysate, affinity-purified GPIIb/IIIa or synthetic peptide, and antibody binding to each well was evaluated as describe above. Data were expressed as a percent of the binding of untreated plasma (% inhibition).
Three of the peptide-positive plasma samples (ITP-1, -2 and -3) were tested further; additional testing of ITP-4 and ITP-5 was not possible due to insufficient plasma.

[2] = tested on: autoantibody binding to washed platelets; test: Inhibition of autoantibody binding to washed platelets by peptide
Procedure: Washed platelets (3×10^7) were incubated with patient plasma (ITP-1-15 μl, ITP-2-60 μl, ITP-3-30 μl) in a total volume of 200 μl citrate buffer for 2 hrs at room temperature, followed by 4 washes. After resuspension in 300 μl of citrate buffer, platelets were lysed with 33 μl of 10% Triton X-100 in citrate buffer. Next, 100 μl of lysate was added to wells coated with murine anti-GPIIb. Bound antibody was detected with labeled anti-human IgG as described.
as §1
To evaluate the contribution of these antipeptide antibodies to the patients' total plasma anti-GPIIb/IIIa activity, the ITP plasmas were preincubated with serial dilutions of the appropriate peptide (8 or 9) and then tested in 4 different assays. In the first, the pretreated plasma was incubated with platelets. After washing and lysis, the GPIIb/IIIa complexes were captured on microtiter wells by monoclonal antibody. In the other 3 assays, pretreated plasma was added to microtiter wells coated directly with either peptide or affinity-purified GPIIb/IIIa (Aff-GPIIb/IIIa) or to microtiter wells with GPIIb/IIIa from plate let lysate immobilized by monoclonal antibody (Moab-GPIIb/IIIa). Antibody binding was detected in all assays with labeled antihuman IgG.

[3] = tested on: plasma autoantibodies (anti-GPIIIa) of chronic ITP patients; test: Solid-phase radioimmunoassay: plasma autoantibody binding to well-bound synthetic GPIIIa peptide
Procedure: Microtiter wells were activated with 100 μl of 0.1% glutaraldehyde in coating buffer (0.1M NaHCO3, pH 8.3) for 1 hr at room temperature (RT). Wells were washed twice with PBS and then incubated for 2 hr at PT with 1 μg of each synthetic peptide in 100 μl of coating buffer. After 6 washes with 0.05% Tween-20 (Sigma Chemical Co., St. Louis, MO) in PBS (wash buffer), each well was incubated with 200 μl of 2% BSA in wash buffer for 1 hr at RT. The wells were washed 6 times, followed by the addition to triplicate wells of 100 μl of plasma diluted 1/10 in wash buffer. After incubation for 1 hr and 6 washes, 100 μl of radiolabeled anti-human igG in wash buffer (100,000 cpm) was added to each well. After a final 1 hr incubation and 6 washes, well-bound radioactivity was determined. Data were expressed as a ratio: Mean cpm bound to GPIIIa peptide divided by mean cpm bound to control peptide (P10).
Nine synthetic peptides corresponding to different sequences within platelet GPIIIa (P1-P9, Table 1) were used as antigenic targets. A synthetic peptide of human HLA Class I heavy chain was used as a control (P10). Plasma from 13 patients with chronic ITP was studied. […] These 2 hydrophilic overlapping peptides are located at the carboxyterminal region of GPIIIa and together comprise the portion of the molecule considered to be the cytoplasmic domain. Plasma for patients ITP-1 and ITP-2 bound to peptide 9 with mean ratios of 32.4 (3 studies) and 5.8 (2 studies), respectively, while patient ITP-3 plasma bound to both peptides 8 and 9 (mean ratios of 13.3 and 3.3, respectively; 3 studies) and patients ITP-4 and ITP-5 bound to peptide 8 (mean ratios of 3.6, 2 studies and 9.4, 2 studies).

Row | Substance | inhibition of antibody reactivity of plasma with the GPIIIa peptides [1] | inhibition of autoantibody binding to washed platelets ([2]; plasma ITP-1 preincubated with peptide, 3 studies (range)) | inhibition of autoantibody binding to washed platelets ([2]; plasma ITP-2 preincubated with peptide, 2 studies) [%] | inhibition of antibody binding to both platelets and GPIIb/IIIa from platelet lysates ([2]; plasma from ITP-1 and ITP-2 preincubated with peptide, summary in discussion) [%] | mean binding ratio (cpm bound to GPIIIa peptide / cpm bound to control peptide P10) ([3]; plasma of patient ITP-1, 1/10 dilution, 3 studies) | mean binding ratio (cpm bound to GPIIIa peptide / cpm bound to control peptide P10) ([3]; plasma of patient ITP-2, 1/10 dilution, 2 studies) | mean binding ratio (cpm bound to GPIIIa peptide / cpm bound to control peptide P10) ([3]; plasma of patient ITP-3, 1/10 dilution, 3 studies)
1 | affinity-purified GPIIb/IIIa: GPIIb/IIIa complex eluted from an anti-GPIIb monoclonal antibody (2A9) column loaded with platelet extract | completely inhibited |  |  |  |  |  | 
2 | ANNPLYKEATSTFTNITYRDT (ANNPLYDEATSTFTNITYRDT) [P9] |  | 87.8-98.0 | 94.0 | > 80 | 32.4 | 5.8 | 3.3
